Test results reported in PMC10384010, “Chromatographic Data in Statistical Analysis of BBB Permeability Indices” (Membranes, 2023).
Like-named read-outs stand apart in the source and are kept apart here.

Experiments:
[1] = Normal-phase TLC on silica gel 60 F254 (Rf); format: physicochemical; conditions: water:methanol:acetonitrile 60:20:20, ammonium acetate pH 7.4
Procedure: (§1) The purity of the isolated substances was checked by TLC chromatography and densitometric scanning.
(§2) APIs were subjected to chromatographic in column (HPLC) and thin layer (TLC) formats. TLC chromatography was carried out on 20 cm × 20 cm glass plates by Merck, covered with silica gel and the addition of a fluorescent indicator. Merck TLC silica gel 60 F254 was used for the normal phase (NP). In the reverse phase (RP), RP-2 silanized plates were used (Merck TLC Silica gel 60 RP-2 F254, silanized). The mobile phase was buffered with ammonium acetate to pH 7.4 (LACH-NER, ammonium acetate).
(§3) Plates, after developing the chromatograms, were scanned using a densitometer (Desaga CD 60) with an analytical wavelength selected individually for drugs. The values of Rf (molecular descriptors: NP, RP) were determined.

[2] = Reversed-phase TLC on RP-2 silanized plates (Rf); format: physicochemical; conditions: silica gel 60 RP-2 F254 silanized; water:methanol:acetonitrile 60:20:20, ammonium acetate pH 7.4
Procedure: as §1, §2, §3

[3] = entering the CNS / not entering the CNS; ref Drugbank [36]; cited from earlier work
[4] = cited from earlier work
[5] = HPLC on IAM (immobilized artificial membrane) column, retention factor; format: physicochemical; conditions: IAM.PC.DD.2 column; for k(IAM) retention factor: 10 mM phosphate buffer pH 7.4:acetonitrile 80:20; for logkIAM: logarithm of retention factor, phosphate buffer pH 7.4:acetonitrile 80:20
Procedure: Chromatographic data also came from an experiment with a HPLC IAM (immobilized artificial membrane) column (Regis Technologies Inc.: IAM.PC.DD.2, 10 µm; 4.6 mm × 10 mm). The column contains a standard membrane consisting of a phospholipid bilayer. Organic solvents (acetonitrile and methanol) and water (J.T. Baker HPLC) were used in HPLC. Sigma phosphate buffered saline tablets were used to prepare the phosphate buffer. The mobile phase was a mixture of 10 mM phosphate buffer at pH 7.4 and acetonitrile in the ratio of 80:20 (v/v) [35]. The mobile phase flow was set at 0.5 mL/min; detection was carried out with a UV–Vis detector. The obtained values of the retention factor (k IAM) were transformed into a logarithmic form and entered into the statistical analysis (descriptor: log k IAM).

[6] = cited from earlier work; remark: listed apart in the source
[7] = plasma protein binding, given as fraction, ref Drugbank

Row | SMILES | NP (Rf from NP TLC plate) [1] | RP (Rf from RP-2 TLC plate) [2] | CNS+/- [3] | Kp,uu,brain (unbound brain-to-plasma drug partition coefficient) [4] | k(IAM) retention factor [5] | logkIAM [5] | Kp,uu,brain (unbound brain-to-plasma drug partition coefficient) ([4]; in vivo) | PB (protein binding) ([6]; plasma) | PB (protein binding) [6, 7]
1 | CN(C)CCC=C1c2ccccc2CCc2ccccc21 [amitriptyline] | 0.32 | 0.67 | 1 | 1.33 |  |  |  |  | 
2 | NC(=O)N1c2ccccc2C=Cc2ccccc21 [carbamazepine] | 0.95 | 0.83 | 1 | 0.76 | 1.50 | 0.18 |  |  | 
3 | CN1C[C@H](C(=O)N[C@]2(C)O[C@@]3(O)[C@@H]4CCCN4C(=O)[C@H](Cc4ccccc4)N3C2=O)C[C@@H]2c3cccc4[nH]cc(c34)C[C@H]21 [dihydroergotamine] | 0.72 | 0.78 | 0 |  |  |  | 0.02 | 0.93 | 
4 | CN(C)CCC=C1c2ccccc2COc2ccccc21 [doxepin] | 0.3 |  | 1 | 3.11 |  |  |  |  | 0.755
5 | CN1CCN2c3ccccc3Cc3ccccc3C2C1 (stereo not shown) [mianserin] | 0.54 | 0.55 | 1 | 3.22 | 21.72 | 1.34 |  |  | 0.9
6 | Cc1ncc2n1-c1ccc(Cl)cc1C(c1ccccc1F)=NC2 [midazolam] | 0.82 | 0.66 | 1 | 1.08 | 5.69 | 0.76 |  |  | 
7 | CN1CCN2c3ncccc3Cc3ccccc3C2C1 (stereo not shown) [mirtazapine] | 0.39 | 0.58 | 1 | 3.85 | 5.83 | 0.77 |  |  | 
8 | CC(=O)Nc1ccc(O)cc1 [paracetamol] | 0.93 | 0.92 | 1 | 0.73 | 0.32 | -0.49 |  |  | 0.25
9 | CCCN1C[C@H](CSC)C[C@@H]2c3cccc4[nH]cc(c34)C[C@H]21 [pergolide] | 0.48 | 0.55 | 1 | 3.19 |  |  |  |  | 0.9
10 | O=C1NC(=O)C(c2ccccc2)(c2ccccc2)N1 [phenytoin] | 0.97 | 0.87 | 1 | 0.66 | 1.78 | 0.25 |  |  | 0.9
11 | OCCOCCN1CCN(C2=Nc3ccccc3Sc3ccccc32)CC1 [quetiapine] | 0.68 | 0.73 | 1 | 1.26 | 17.02 | 1.23 |  |  | 0.83
12 | CN(C)CCc1c[nH]c2ccc(Cn3cncn3)cc12 [rizatriptan] | 0.2 |  | 1 | 0.04 | 2.53 | 0.40 |  |  | 
13 | CSc1ccc2c(c1)N(CCC1CCCCN1C)c1ccccc1S2 (stereo not shown) [thioridazine] | 0.47 | 0.4 | 1 | 3.5 | 47.61 | 1.68 |  |  | 
14 | O=c1n(CCCN2CCN(c3cccc(Cl)c3)CC2)nc2ccccn12 [trazodone] | 0.71 | 0.76 | 1 | 1.54 | 9.30 | 0.97 |  |  | 0.92
